The target in the first data set is MAP2K1 (MEK1) (Homo sapiens (Human), UniProt Q02750). Description: MEK Inhibition Assay-2 (Z'-LYTE biochemical assay; Example 5). To be noted: Table 6, Z'-LYTE procedure of Example 5; read-out: IC50 against MEK1. The protocol:
MEK1 inhibitory activity of compounds were tested using the following procedure (protocol available at thermofisher.com/content/dam/LifeTech/migration/files/drug-discovery/pdfs.par.60256.file.dat/20130430%20ssbk%20customer%20protocol%20and%20assay%20conditions.pdf). The Z′-LYTE biochemical assay (ThermoFisher) employs a fluorescence-based, coupled-enzyme format and is based on the differential sensitivity of phosphorylated and non-phosphorylated peptides to proteolytic cleavage.
Test compounds in 100% DMSO were screened in 1% DMSO (final) in the well. For 10 point titrations, 3-fold serial dilutions are conducted from the starting concentration of 30 μM.
After the 1 hour incubation, 5 μL of a 1:1024 dilution of Development Reagent A (available from Invitrogen, catalog no. PV3295) was added.
ATP solutions were diluted to a 4× working concentration in Kinase Buffer (50 mM HEPES pH 7.5, 0.01% BRIJ-35, 10 mM MgCl2, 1 mM EGTA). ATP Km apparent was previously determined using a Z′-LYTE assay. The Development Reagent was diluted in Development Buffer (available from Invitrogen, catalog no. P3127).
Assay Protocol: 2.5 μL of 4× test compound or 100 nL of 100× Test Compound plus 2.4 μL Kinase Buffer, 5 μL of the 2× Peptide/Kinase Mixture, 2.5 μL of 4×ATP Solution were added to the plates and placed on a shake plate for 30-seconds. The kinase reaction was allowed to proceed for 60-minute at room temperature, before 5 μL of Development Reagent Solution was added, and the mixture agitated for 30-seconds on a shake plate. The mixture was incubated for 60-minute at room temperature. Fluorescence was measured using a plate reader and the data were analyzed.
This control yielded 100% cleaved peptide in the Development Reaction. The 100% Phosphorylation Control, which consisted of a synthetically phosphorylated peptide of the same sequence as the peptide substrate, was designed to allow for the calculation of percent phosphorylation. This control yielded a very low percentage of cleaved peptide in the Development Reaction. The 0% Phosphorylation and 100% Phosphorylation Controls allow for the calculation of the percent phosphorylation achieved in a specific reaction well.
The minimum emission ratio in a screen was established by the 0% Inhibition Control, which contained active kinase. This control was designed to produce a 10-50% phosphorylated peptide in the Kinase Reaction. Cascade assays may produce up to 70% phosphorylated peptide.
A known inhibitor control standard curve, 10 point titration, was run for each individual kinase on the same plate as the kinase to ensure the kinase was inhibited within an expected IC50 range previously determined.
The following controls are prepared for each concentration of Test Compound assayed. […] The expected value for a non-interfering compound should be 100%. Any value outside of 90% to 110% was flagged. […] The expected value for a non-fluorescence compound should be 0%. Any value >20% was flagged.
The data in Table A was calculated. XLfit from IDBS was used. The dose response curve was curve fit to model number 205 (sigmoidal dose-response model).
Sequence of MAP2K1 (MEK1) (Q02750 whole entry): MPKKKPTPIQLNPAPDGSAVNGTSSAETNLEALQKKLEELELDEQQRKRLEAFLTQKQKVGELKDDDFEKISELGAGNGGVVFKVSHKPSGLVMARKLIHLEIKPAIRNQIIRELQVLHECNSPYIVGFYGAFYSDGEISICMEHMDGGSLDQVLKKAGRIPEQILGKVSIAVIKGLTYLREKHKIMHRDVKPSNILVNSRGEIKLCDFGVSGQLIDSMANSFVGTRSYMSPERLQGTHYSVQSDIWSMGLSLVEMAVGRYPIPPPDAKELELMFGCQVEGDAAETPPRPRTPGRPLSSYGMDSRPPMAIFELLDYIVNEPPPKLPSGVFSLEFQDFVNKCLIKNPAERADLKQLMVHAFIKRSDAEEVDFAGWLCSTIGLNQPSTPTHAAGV
A word on the IC50: it is the point on the concentration scale where inhibition reaches its midpoint. `N#Cc1ccc(C(=O)N2CC(O)C2)c(Nc2ccc(I)cc2F)c1` [Compound 1.002]: the IC50 is above 1500 nM.
On the same count and under the same terms, the same measure for `N#Cc1ccc(C(=O)NOCCO)c(Nc2ccc(I)cc2F)c1` [Compound 1.010]: at most 150 nM; for `N#Cc1ccc(C(=O)NO)c(Nc2ccc(I)cc2F)c1` [Compound 1.017]: at most 150 nM; for `COC(=O)CCONC(=O)c1ccc(C#N)cc1Nc1ccc(I)cc1F` [Compound 1.022]: above 1500 nM.
With `N#Cc1ccc(C(=O)NOCCO)c(Nc2ccc(I)cc2F)c1F` [Compound 1.030], the IC50 is at most 150 nM.
On the same count and under the same terms, the value for `N#Cc1ccc(C(=O)NOCC2CC2)c(Nc2ccc(I)cc2F)c1F` [Compound 1.031] was at most 150 nM; that for `O=C1CCCc2c1sc(Nc1ccc(I)cc1F)c2C(=O)NOCCO` [Compound 4.029] was at most 150 nM.
The same measure, in the same setting: the value for `O=C1CCCc2c1sc(Nc1ccc(I)cc1F)c2C(=O)NOC[C@H](O)CO` [Compound 4.030] was at most 150 nM; that for `O=C1CCCc2c1sc(Nc1ccc(I)cc1F)c2C(=O)NOCC1CC1` [Compound 4.032] was at most 150 nM; that for `NCCONC(=O)c1c(Nc2ccc(I)cc2F)sc2c1CCCC2=O` [Compound 4.033] was at most 150 nM.
The same measure, in the same setting: the same measure for `O=C1CCCc2c1sc(Nc1ccc(I)cc1F)c2C(=O)NC[C@H](O)CO` [Compound 4.034]: at most 150 nM; for `O=C1CCCc2c1sc(Nc1ccc(I)cc1F)c2C(=O)NC[C@@H](O)CO` [Compound 4.035]: at most 150 nM.
`O=c1c2c(Nc3ccc(I)cc3F)cncc2ccn1C[C@@H](O)CO` [Compound 5.001]: the IC50 was at most 150 nM.
As for `O=c1c2c(Nc3ccc(I)cc3F)cncc2ccn1C[C@H](O)CO` [Compound 5.002], the IC50 is at most 150 nM.
Still for that read-out and setting: the same measure for `O=C(O)Cn1ccc2cncc(Nc3ccc(I)cc3F)c2c1=O` [Compound 5.004]: above 1500 nM; for `COC(=O)Cn1ccc2cncc(Nc3ccc(I)cc3F)c2c1=O` [Compound 5.005]: above 1500 nM.

Another data set relates to skin tumors.
Test: not given
To be noted: oral; trametinib 2 mg/kg/day, cobimetinib 10 mg/kg/day; chronic, low-dose, solar simulated UV light; cited from earlier work.
Take `O=C(c1ccc(F)c(F)c1Nc1ccc(I)cc1F)N1CC(O)([C@@H]2CCCCN2)C1` [cobimetinib]: the “reduction of skin tumors” value is reported as “effective in reducing skin tumors”.
Consider `CC(=O)Nc1cccc(-n2c(=O)n(C3CC3)c(=O)c3c(Nc4ccc(I)cc4F)n(C)c(=O)c(C)c32)c1` [trametinib], for which the “reduction of skin tumors” value is “effective in reducing skin tumors”.

Tested on in a further data set: not given
Test: not given
To be noted: topical application; cited from earlier work.
For the compound `O=c1[nH]cc(F)c(=O)[nH]1` [5-fluorouracil], the “patients who experienced at least 1 adverse event ranging from mild to severe” value was at most 97%.
Regarding `CC(C)Cn1cnc2c(N)nc3ccccc3c21` [imiquimod, Imiquimod], the “patients who experienced at least 1 adverse event ranging from mild to severe” value is given as “Up to 100%”.

For another data set, the system named is cutaneous squamous-cell carcinoma tumors.
Test: not given
To be noted: topical delivery.
On to `Cn1c(Nc2ccc(I)cc2F)c(C(=O)NOCCO)c2cccnc21` [Compound 2.003], for which the “body weight loss of treated mice” value is “none of the mice lost weight”.

Still in this data set, the particulars now being: topical gel 0.01%, 0.15%, 0.5% by weight, 30 day course of treatment, first 12 mice.
With `Cn1c(Nc2ccc(I)cc2F)c(C(=O)NOCCO)c2cccnc21` [Compound 2.003], the “tumor formation versus topical vehicle (placebo)” value is recorded as “mice treated with the topical vehicle (placebo) formed substantially more tumors than those treated with Compound 2.003 at all concentrations”.

The same data set, now with this note: topical gel 0.5%, 0.15%, 0.01%, FIG. 5.
Turning to `Cn1c(Nc2ccc(I)cc2F)c(C(=O)NOCCO)c2cccnc21` [Compound 2.003], the “tumor induction (new tumors per mouse)” value is reported as “completely suppress tumor induction”.

The data set is the same for the next values; noted with them: topical gel 0.5%, 0.15%, 0.01%, FIG. 6.
Turning to `Cn1c(Nc2ccc(I)cc2F)c(C(=O)NOCCO)c2cccnc21` [Compound 2.003], the “size of existing tumors (tumor volume per mouse)” value was “reduce the size of existing tumors”.

These data come from patent publication US20250387379A1, “ARYL-ANILINE AND HETEROARYL-ANILINE COMPOUNDS FOR TREATMENT OF SKIN CANCERS” (NFLECTION THERAPEUTICS, INC., priority 2018, published 2025).
